The values below come from patent US20230069804A1, “METHODS AND COMPOSITIONS FOR MODULATING SPLICING” (SkyHawk Therapeutics, Inc., priority 2019, published 2023).

Data set [1] concerns MDR1-MDCK cell monolayers. Briefly: MDCK-MDR1 permeability assay (BBB penetration potential). It is filed as in vitro ADME. The note with it: 5 μM, 120 minutes, pH 7.4. How it is done: (§1) Each determination is performed in duplicate. […] Analytical conditions are outlined below.
(§2) Papp=(dCr/dt)×Vr/(A×CA) (1)

In the next data set the test system is MDR1. Described as above. The data set is classed as in vitro ADME. The note with it: dog; for efflux ratio at 120 min, 5 μM: MDCK-MDR1, pH 7.4, Papp (B-to-A)/Papp (A-to-B), read-out: MDCK-MDR1: Efflux; for Papp A→B at 120 min, 5 μM / Papp B→A at 120 min, 5 μM: MDCK-MDR1, pH 7.4. How it is done:
as §1, §2

In a further data set the test system is SMN protein. Nature of the data set: SMN protein assay (MSD) in SMA patient fibroblasts GM03813. The data set is classed as cell-based. The following applies: Fibroblast, 48 h, SMA patient fibroblasts GM03813, 48 hours; read-out: SMN2 Potency - Protein: Protein FL EC50 (average). As to the method:
Compounds were tested on spinal muscular atrophy (SMA) patient fibroblasts (GM03813, Coriell) at doses ranging from 2.5 μM to 0.6 nM. 7000 cells/well were seeded in 96-well plates. Compounds were incubated for 48 hours and the cells were lysed with 100 μL of lysis buffer. 20 μL of lysate was used for SMN protein measurement by Mesoscale Discovery (MSD) assay developed by PharmOptima (Michigan). A standard curve prepared with SMN protein ranging from 1 μg/ml to 19.5 pg/ml was used in each MSD plate to calculate the absolute SMN protein amount in each sample.

Another data set has as its system SMN2. Briefly: Quantitative splicing assay (SMN) in SMA patient fibroblasts GM03813. The following applies: Homo sapiens, Fibroblast, SMA patient fibroblasts GM03813, 24 h; for IC50: read-out: SMN2 Potency - Splicing: Splicing D7 IC50 (average); for EC50: read-out: SMN2 Potency - Splicing: Splicing FL EC50 (average). It is filed as cell-based. How it is done: Spinal muscular atrophy (SMA) patient fibroblasts (GM03813, Coriell) are plated in 96-well plates at 50,000 cells/well. Immediately after plating, cells are dosed with compounds for 24 h at concentrations ranging from 2.5 μM to 0.6 nM (0.1% DMSO). Treated cells are lysed and cDNA synthesized using the Fast Advanced Cells-to-Ct kit (Thermofisher A35378) according to the manufacturer's instructions. 2 μL of each cDNA are used in qPCR reactions. The qPCR reactions are prepared in 384-well plates in 10 μL volume, using TaqMan™ Fast Advanced Master Mix (ThermoFisher; 4444965) with primers and probes shown in the table below. Reactions are run in a Quant Studio 6 qPCR instrument with default settings.
It is to be understood that the absolute stereochemistry for compounds of Table 3 is not determined.

The term Papp A→B denotes the apparent permeability from the apical to the basolateral side of a cell layer. As usually defined, the Papp B→A is how fast a substance crosses the layer from the basolateral side. For orientation: EC50 means the concentration giving half of the maximal effect. In general, IC50 refers to the concentration that inhibits the measured activity by half. As to `CN(c1nnc(-c2cc(F)c(-c3cnn(C)c3)cc2O)s1)[C@@H]1C[C@H]2CC[C@H](N2)[C@@H]1F` (single isomer, unassigned) [Compound E-9B], in data set [1], the “MDCK-MDR1: % Recov A-B” value was 48% and the “MDCK-MDR1: % Recov B-A” value was 67%. For the same compound, in the data set on MDR1, the efflux ratio at 120 min, 5 μM worked out at 5; the Papp A→B at 120 min, 5 μM came out at 5.38 ×10⁻⁶ cm/s; the Papp B→A at 120 min, 5 μM was found to be 26 ×10⁻⁶ cm/s. In the data set with SMN protein, the EC50 is 16 to 50 nM. Also, in the data set on SMN2, the IC50 lay within 0.01 to 15 nM and the EC50 was 16 to 50 nM.

As for `CN(c1nnc(-c2ccc(-c3cnn(CF)c3)cc2O)s1)[C@@H]1C[C@H]2CC[C@H](N2)[C@@H]1F` (single isomer, unassigned) [Compound E-10B], in data set [1], the “MDCK-MDR1: % Recov A-B” value turned out to be 72% and the “MDCK-MDR1: % Recov B-A” value came out at 73%. Moreover, in the data set with MDR1, the efflux ratio at 120 min, 5 μM was found to be 6; the Papp A→B at 120 min, 5 μM amounted to 7.85 ×10⁻⁶ cm/s; the Papp B→A at 120 min, 5 μM is 48.9 ×10⁻⁶ cm/s. Moreover, in the data set with SMN protein, the concentration giving a half-maximal response (EC50) lay in the range of 0.01 to 15 nM. Also, in the data set with SMN2, the IC50 was in the range of 16 to 50 nM and the EC50 was 16 to 50 nM.

In the case of `CN(c1nnc(-c2ccc(-c3ccn(CF)c(=O)c3)cc2O)s1)[C@H]1C[C@@H]2CC[C@@H](N2)[C@H]1F` (single isomer, unassigned) [Compound E-15B], in data set [1], the “MDCK-MDR1: % Recov A-B” value was 88% and the “MDCK-MDR1: % Recov B-A” value is 97%. For the same compound, in the data set with MDR1, the efflux ratio at 120 min, 5 μM stood at 66; the Papp A→B at 120 min, 5 μM is 0.98 ×10⁻⁶ cm/s; the Papp B→A at 120 min, 5 μM turned out to be 64.8 ×10⁻⁶ cm/s. Also, the EC50 in the data set with SMN protein was in the range of 16 to 50 nM. Also, in the data set on SMN2, the IC50 fell in the range of 51 to 100 nM and the EC50 lay within 101 to 500 nM.

As to `CN(c1nnc(-c2ccc(-c3cn[nH]c3)cc2O)s1)[C@H]1C[C@@H]2CC[C@H]([C@H]1F)N2C` (single isomer, unassigned) [Compound E-23A], in data set [1], the “MDCK-MDR1: % Recov A-B” value was 78% and the “MDCK-MDR1: % Recov B-A” value is on record as 90%. In the data set with MDR1, the efflux ratio at 120 min, 5 μM was 9; the Papp A→B at 120 min, 5 μM was 4.65 ×10⁻⁶ cm/s; the Papp B→A at 120 min, 5 μM is 41.2 ×10⁻⁶ cm/s. For the same compound, the EC50 in the data set with SMN protein was in the range of 101 to 500 nM. Moreover, in the data set with SMN2, the IC50 lay within 501 to 10000 nM and the concentration giving a half-maximal response (EC50) was 501 to 10000 nM.

For the compound `CN(c1nnc(-c2ccc(-c3cnn(C)c3)cc2O)s1)[C@@H]1C[C@H]2CCC[C@H](N2)[C@@H]1F` [Compound E-1A, 2-(5-(((1S,2S,3R,5R)-2-fluoro-9-azabicyclo[3.3.1]nonan-3-yl)(methyl)amino)-1,3,4-thiadiazol-2-yl)-5-(1-methyl-1H-pyrazol-4-yl)phenol], in data set [1], the “MDCK-MDR1: % Recov A-B” value is 57% and the “MDCK-MDR1: % Recov B-A” value is recorded as 71%. In the data set on MDR1, the efflux ratio at 120 min, 5 μM turned out to be 6; the Papp A→B at 120 min, 5 μM was found to be 5.28 ×10⁻⁶ cm/s; the Papp B→A at 120 min, 5 μM came to 33.1 ×10⁻⁶ cm/s. Further, the EC50 in the data set on SMN protein was in the range of 16 to 50 nM. Moreover, in the data set on SMN2, the IC50 is 51 to 100 nM and the EC50 lay in the range of 101 to 500 nM.

In the case of `CN(c1nnc(-c2ccc(-c3cnn(C)c3)cc2O)s1)[C@H]1C[C@@H]2CCC[C@@H](N2)[C@H]1F` [Compound E-1B, 2-(5-(((1R,2R,3S,5S)-2-fluoro-9-azabicyclo[3.3.1]nonan-3-yl)(methyl)amino)-1,3,4-thiadiazol-2-yl)-5-(1-methyl-1H-pyrazol-4-yl)phenol], in data set [1], the “MDCK-MDR1: % Recov A-B” value is listed as 53% and the “MDCK-MDR1: % Recov B-A” value turned out to be 68%. For the same compound, in the data set on MDR1, the efflux ratio at 120 min, 5 μM was determined as 4; the Papp A→B at 120 min, 5 μM was 5.53 ×10⁻⁶ cm/s; the Papp B→A at 120 min, 5 μM amounted to 20.4 ×10⁻⁶ cm/s. In addition, in the data set on SMN protein, the EC50 fell in the range of 0.01 to 15 nM. Further, in the data set with SMN2, the IC50 lay within 0.01 to 15 nM and the concentration giving a half-maximal response (EC50) fell in the range of 16 to 50 nM.

For `COc1cc(-c2ccc(-c3nnc(N(C4CC4)[C@@H]4C[C@H]5CC[C@H](N5)[C@@H]4F)s3)c(O)c2)cc(F)n1` [Compound E-2A, 2-(5-(cyclopropyl((1S,2S,3R,5R)-2-fluoro-8-azabicyclo[3.2.1]octan-3-yl)amino)-1,3,4-thiadiazol-2-yl)-5-(2-fluoro-6-methoxypyridin-4-yl)phenol], in data set [1], the “MDCK-MDR1: % Recov A-B” value worked out at 19% and the “MDCK-MDR1: % Recov B-A” value was 45%. In addition, in the data set with MDR1, the efflux ratio at 120 min, 5 μM was determined as 6; the Papp A→B at 120 min, 5 μM stood at 2.07 ×10⁻⁶ cm/s; the Papp B→A at 120 min, 5 μM was found to be 12 ×10⁻⁶ cm/s. The EC50 in the data set on SMN protein is 0.01 to 15 nM. In the data set on SMN2, the IC50 was in the range of 0.01 to 15 nM and the EC50 is 16 to 50 nM.

As to `COc1cc(-c2ccc(-c3nnc(N(C4CC4)[C@H]4C[C@@H]5CC[C@@H](N5)[C@H]4F)s3)c(O)c2)cc(F)n1` [Compound E-2B, 2-(5-(cyclopropyl((1R,2R,3S,5S)-2-fluoro-8-azabicyclo[3.2.1]octan-3-yl)amino)-1,3,4-thiadiazol-2-yl)-5-(2-fluoro-6-methoxypyridin-4-yl)phenol], in data set [1], the “MDCK-MDR1: % Recov A-B” value is given as 16% and the “MDCK-MDR1: % Recov B-A” value came out at 44%. Further, in the data set with MDR1, the efflux ratio at 120 min, 5 μM was 5; the Papp A→B at 120 min, 5 μM was 1.87 ×10⁻⁶ cm/s; the Papp B→A at 120 min, 5 μM is 9.89 ×10⁻⁶ cm/s. The EC50 in the data set on SMN protein lay within 0.01 to 15 nM. Further, in the data set with SMN2, the IC50 lay in the range of 16 to 50 nM and the EC50 is 51 to 100 nM.

On to `CN(c1nnc(-c2ccc(-c3cnn(C)c3)cc2O)s1)[C@H]1C[C@@H]2CC[C@@H](N2)[C@H]1F` [Compound E-3A, 2-(5-(((1R,2R,3S,5S)-2-fluoro-8-azabicyclo[3.2.1]octan-3-yl)(methyl)amino)-1,3,4-thiadiazol-2-yl)-5-(1-methyl-1H-pyrazol-4-yl)phenol], for which, in data set [1], the “MDCK-MDR1: % Recov A-B” value came out at 77% and the “MDCK-MDR1: % Recov B-A” value is recorded as 85%. For the same compound, in the data set with MDR1, the efflux ratio at 120 min, 5 μM is 3; the Papp A→B at 120 min, 5 μM was determined as 10.5 ×10⁻⁶ cm/s; the Papp B→A at 120 min, 5 μM was found to be 35.2 ×10⁻⁶ cm/s. Besides, the EC50 in the data set with SMN protein lay within 16 to 50 nM. Further, in the data set on SMN2, the IC50 was 101 to 500 nM and the EC50 lay within 101 to 500 nM.

`CN(c1nnc(-c2ccc(-c3cnn(C)c3)cc2O)s1)[C@@H]1C[C@H]2CC[C@H](N2)[C@@H]1F` [Compound E-3B, 2-(5-(((1S,2S,3R,5R)-2-fluoro-8-azabicyclo[3.2.1]octan-3-yl)(methyl)amino)-1,3,4-thiadiazol-2-yl)-5-(1-methyl-1H-pyrazol-4-yl)phenol]: in data set [1], the “MDCK-MDR1: % Recov A-B” value amounted to 80% and the “MDCK-MDR1: % Recov B-A” value stood at 89%. Moreover, in the data set on MDR1, the efflux ratio at 120 min, 5 μM came out at 5; the Papp A→B at 120 min, 5 μM came out at 11.2 ×10⁻⁶ cm/s; the basolateral-to-apical permeability (Papp B→A) at 120 min, 5 μM stood at 51.1 ×10⁻⁶ cm/s. In addition, the concentration for a half-maximal effect (EC50) in the data set on SMN protein is 0.01 to 15 nM. In addition, in the data set on SMN2, the IC50 was 0.01 to 15 nM and the EC50 was 16 to 50 nM.
